From PubChem BioAssay (NCI)
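Results reflect a 48-hour exposure of cells in 96-well plates to compound at five concentrations. GI50 marks 50% less growth. The concentration for full growth arrest is given as TGI.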

Assays:
Assay in all cases: growth of human tumour cells (NCI), 48 h
LOX IMVI melanoma = test system: LOX IMVI melanoma
OVCAR-3 ovarian = test system: OVCAR-3 ovarian
NCI/ADR-RES ovarian = test system: NCI/ADR-RES ovarian
UO-31 renal = test system: UO-31 renal
MOLT-4 leukemia = test system: MOLT-4 leukemia
HOP-62 NSCLC = test system: HOP-62 NSCLC
NCI-H226 lung = test system: NCI-H226 lung
MCF7 breast = test system: MCF7 breast
U251 CNS = test system: U251 CNS
CAKI-1 renal = test system: CAKI-1 renal
SR leukemia = test system: SR leukemia
BT-549 breast = test system: BT-549 breast
SW-620 colon = test system: SW-620 colon
SN12C renal = test system: SN12C renal
HT29 colon = test system: HT29 colon
MALME-3M melanoma = test system: MALME-3M melanoma
TK-10 renal = test system: TK-10 renal
SK-MEL-5 melanoma = test system: SK-MEL-5 melanoma
M14 melanoma = test system: M14 melanoma
OVCAR-8 ovarian = test system: OVCAR-8 ovarian
UACC-257 melanoma = test system: UACC-257 melanoma
SK-MEL-2 melanoma = test system: SK-MEL-2 melanoma
HCT-15 colon = test system: HCT-15 colon
HCC-2998 colon = test system: HCC-2998 colon
KM12 colon = test system: KM12 colon
HCT-116 colon = test system: HCT-116 colon
MDA-MB-435 = test system: MDA-MB-435
NCI-H23 lung = test system: NCI-H23 lung
OVCAR-5 ovarian = test system: OVCAR-5 ovarian
RXF 393 renal = test system: RXF 393 renal
T-47D breast = test system: T-47D breast
A498 renal = test system: A498 renal
MDA-MB-231 breast = test system: MDA-MB-231 breast
CCRF-CEM leukemia = test system: CCRF-CEM leukemia
RPMI-8226 leukemia = test system: RPMI-8226 leukemia
HS 578T breast = test system: HS 578T breast
SNB-75 CNS = test system: SNB-75 CNS
SNB-19 CNS = test system: SNB-19 CNS
SF-295 CNS = test system: SF-295 CNS
OVCAR-4 ovarian = test system: OVCAR-4 ovarian
HOP-92 NSCLC = test system: HOP-92 NSCLC
NCI-H460 lung = test system: NCI-H460 lung
COLO 205 colon = test system: COLO 205 colon
PC-3 prostate = test system: PC-3 prostate
SK-MEL-28 melanoma = test system: SK-MEL-28 melanoma
K-562 leukemia = test system: K-562 leukemia
DU-145 prostate = test system: DU-145 prostate
ACHN renal = test system: ACHN renal
786-0 renal = test system: 786-0 renal
HL-60(TB) leukemia = test system: HL-60(TB) leukemia
A549 NSCLC = test system: A549 NSCLC
UACC-62 melanoma = test system: UACC-62 melanoma
SK-OV-3 ovarian = test system: SK-OV-3 ovarian
SF-268 CNS = test system: SF-268 CNS
SF-539 CNS = test system: SF-539 CNS
NCI-H522 lung = test system: NCI-H522 lung
IGROV1 ovarian = test system: IGROV1 ovarian
EKVX NSCLC = test system: EKVX NSCLC

Nc1ncnc2c1ncn2C=C=CCO
TGI (LOX IMVI melanoma): > 100 µM | TGI (OVCAR-3 ovarian): > 100 µM | TGI (NCI/ADR-RES ovarian): > 100 µM | TGI (UO-31 renal): > 100 µM | TGI (MOLT-4 leukemia): > 100 µM | TGI (HOP-62 NSCLC): > 100 µM | TGI (NCI-H226 lung): > 100 µM | TGI (MCF7 breast): > 100 µM | TGI (U251 CNS): > 100 µM | TGI (CAKI-1 renal): > 100 µM | TGI (SR leukemia): > 100 µM | TGI (BT-549 breast): > 100 µM | TGI (SW-620 colon): > 100 µM | TGI (SN12C renal): > 100 µM | TGI (HT29 colon): > 100 µM | TGI (MALME-3M melanoma): > 100 µM | TGI (TK-10 renal): > 100 µM | TGI (SK-MEL-5 melanoma): > 100 µM | TGI (M14 melanoma): > 100 µM | TGI (OVCAR-8 ovarian): > 100 µM | TGI (UACC-257 melanoma): > 100 µM | TGI (SK-MEL-2 melanoma): > 100 µM | TGI (HCT-15 colon): > 100 µM | TGI (HCC-2998 colon): > 100 µM | TGI (KM12 colon): > 100 µM | TGI (HCT-116 colon): > 100 µM | TGI (MDA-MB-435): > 100 µM | TGI (NCI-H23 lung): > 100 µM | TGI (OVCAR-5 ovarian): > 100 µM | TGI (RXF 393 renal): > 100 µM | TGI (T-47D breast): > 100 µM | TGI (A498 renal): > 100 µM | TGI (MDA-MB-231 breast): > 100 µM | TGI (CCRF-CEM leukemia): > 100 µM | TGI (RPMI-8226 leukemia): > 100 µM | TGI (HS 578T breast): > 100 µM | TGI (SNB-75 CNS): > 100 µM | TGI (SNB-19 CNS): > 100 µM | TGI (SF-295 CNS): > 100 µM | TGI (OVCAR-4 ovarian): > 100 µM | TGI (HOP-92 NSCLC): > 100 µM | TGI (NCI-H460 lung): > 100 µM | TGI (COLO 205 colon): > 100 µM | TGI (PC-3 prostate): > 100 µM | TGI (SK-MEL-28 melanoma): > 100 µM | TGI (K-562 leukemia): > 100 µM | TGI (DU-145 prostate): > 100 µM

CC(C)[C@H](N)C(=O)N1CCC[C@H]1B(O)O
GI50 (ACHN renal): > 100 µM | TGI (ACHN renal): > 100 µM | GI50 (LOX IMVI melanoma): > 100 µM | TGI (LOX IMVI melanoma): > 100 µM | GI50 (OVCAR-3 ovarian): > 100 µM | TGI (OVCAR-3 ovarian): > 100 µM | GI50 (NCI/ADR-RES ovarian): > 100 µM | TGI (NCI/ADR-RES ovarian): > 100 µM | GI50 (UO-31 renal): > 100 µM | TGI (UO-31 renal): > 100 µM | GI50 (MOLT-4 leukemia): > 100 µM | TGI (MOLT-4 leukemia): > 100 µM | GI50 (786-0 renal): > 100 µM | TGI (786-0 renal): > 100 µM | GI50 (HOP-62 NSCLC): > 100 µM | TGI (HOP-62 NSCLC): > 100 µM | GI50 (NCI-H226 lung): > 100 µM | TGI (NCI-H226 lung): > 100 µM | GI50 (MCF7 breast): > 100 µM | TGI (MCF7 breast): > 100 µM | GI50 (U251 CNS): > 100 µM | TGI (U251 CNS): > 100 µM | GI50 (CAKI-1 renal): > 100 µM | TGI (CAKI-1 renal): > 100 µM | GI50 (BT-549 breast): > 100 µM | TGI (BT-549 breast): > 100 µM | GI50 (HL-60(TB) leukemia): > 100 µM | TGI (HL-60(TB) leukemia): > 100 µM | GI50 (SW-620 colon): > 100 µM | TGI (SW-620 colon): > 100 µM | GI50 (A549 NSCLC): > 100 µM | TGI (A549 NSCLC): > 100 µM | GI50 (SN12C renal): > 100 µM | TGI (SN12C renal): > 100 µM | GI50 (HT29 colon): > 100 µM | TGI (HT29 colon): > 100 µM | GI50 (MALME-3M melanoma): > 100 µM | TGI (MALME-3M melanoma): > 100 µM | GI50 (UACC-62 melanoma): > 100 µM | TGI (UACC-62 melanoma): > 100 µM | GI50 (TK-10 renal): > 100 µM | TGI (TK-10 renal): > 100 µM | GI50 (SK-MEL-5 melanoma): > 100 µM | TGI (SK-MEL-5 melanoma): > 100 µM | GI50 (M14 melanoma): > 100 µM | TGI (M14 melanoma): > 100 µM | GI50 (OVCAR-8 ovarian): > 100 µM | TGI (OVCAR-8 ovarian): > 100 µM | GI50 (SK-OV-3 ovarian): > 100 µM | TGI (SK-OV-3 ovarian): > 100 µM | GI50 (UACC-257 melanoma): > 100 µM | TGI (UACC-257 melanoma): > 100 µM | GI50 (SK-MEL-2 melanoma): > 100 µM | TGI (SK-MEL-2 melanoma): > 100 µM | GI50 (HCT-15 colon): > 100 µM | TGI (HCT-15 colon): > 100 µM | GI50 (SF-268 CNS): > 100 µM | TGI (SF-268 CNS): > 100 µM | GI50 (HCC-2998 colon): > 100 µM | TGI (HCC-2998 colon): > 100 µM | GI50 (KM12 colon): > 100 µM | TGI (KM12 colon): > 100 µM | GI50 (HCT-116 colon): > 100 µM | TGI (HCT-116 colon): > 100 µM | GI50 (MDA-MB-435): > 100 µM | TGI (MDA-MB-435): > 100 µM | GI50 (NCI-H23 lung): > 100 µM | TGI (NCI-H23 lung): > 100 µM | GI50 (OVCAR-5 ovarian): > 100 µM | TGI (OVCAR-5 ovarian): > 100 µM | GI50 (RXF 393 renal): > 100 µM | TGI (RXF 393 renal): > 100 µM | GI50 (SF-539 CNS): > 100 µM | TGI (SF-539 CNS): > 100 µM | GI50 (NCI-H522 lung): > 100 µM | TGI (NCI-H522 lung): > 100 µM | GI50 (T-47D breast): > 100 µM | TGI (T-47D breast): > 100 µM | GI50 (A498 renal): > 100 µM | TGI (A498 renal): > 100 µM | GI50 (MDA-MB-231 breast): > 100 µM | TGI (MDA-MB-231 breast): > 100 µM | GI50 (CCRF-CEM leukemia): > 100 µM | TGI (CCRF-CEM leukemia): > 100 µM | GI50 (RPMI-8226 leukemia): > 100 µM | TGI (RPMI-8226 leukemia): > 100 µM | GI50 (IGROV1 ovarian): > 100 µM | TGI (IGROV1 ovarian): > 100 µM | GI50 (HS 578T breast): > 100 µM | TGI (HS 578T breast): > 100 µM | GI50 (SNB-75 CNS): > 100 µM | TGI (SNB-75 CNS): > 100 µM | GI50 (SNB-19 CNS): > 100 µM | TGI (SNB-19 CNS): > 100 µM | GI50 (EKVX NSCLC): > 100 µM | TGI (EKVX NSCLC): > 100 µM | GI50 (SF-295 CNS): > 100 µM | TGI (SF-295 CNS): > 100 µM | GI50 (OVCAR-4 ovarian): > 100 µM | TGI (OVCAR-4 ovarian): > 100 µM | GI50 (HOP-92 NSCLC): > 100 µM | TGI (HOP-92 NSCLC): > 100 µM | GI50 (NCI-H460 lung): > 100 µM | TGI (NCI-H460 lung): > 100 µM | GI50 (COLO 205 colon): > 100 µM | TGI (COLO 205 colon): > 100 µM | GI50 (PC-3 prostate): > 100 µM | TGI (PC-3 prostate): > 100 µM | GI50 (SK-MEL-28 melanoma): > 100 µM | TGI (SK-MEL-28 melanoma): > 100 µM | GI50 (K-562 leukemia): > 100 µM | TGI (K-562 leukemia): > 100 µM | GI50 (DU-145 prostate): > 100 µM | TGI (DU-145 prostate): > 100 µM
